These results are taken from patent US9609810B2, “Methods for modulating photosynthetic activity” (priority 2012, dated 2017).

Structures are written as SMILES.

Common to all, as to assay type: in vivo
The subject of test [1] is dwarf sunflower (Helianthus annuus L.) plants. The test is described as follows: Stomata conductance and transpiration in greenhouse-grown plants. To be noted: foliar application of aqueous 10 ppm NaHS, pH 7.4, once per evening for one week; compared to control plants. From the text: In the following example, a treatment group of dwarf sunflower (Helianthus annuus L.) plants is sprayed once each evening with an aqueous “treatment solution” of 10 ppm sodium hydrosulfide (NaHS) in distilled water, buffered with phosphate, to a pH of 7.4. The control group of plants is sprayed once each evening with an equivalent amount of “control solution” consisting of distilled water buffered with phosphate to a pH of 7.4. The treatment and control groups each include seven plants. The dwarf sunflower plants are grown from seed in 20-cm diameter plastic pots. Each pot contains one plant growing in a peat, sand mixture. […]
Stomata conductance is measured with a steady state porometer (LiCor model LI-1600, LiCor Inc., Lincoln, Nebr.). Measurements are made on the abaxial leaf surfaces where the majority of stomata are located and are recorded after the treated group and the control group are sprayed once per evening for one week.
The transpiration rate is determined by calculating the vapor pressure at the evaporating surface (leaf) and the air vapor pressure. The saturated vapor pressure of the leaf is calculated by measuring leaf temperature. Leaf temperature is measured using an external thermocouple as well as the LICor porometer. […] Relative humidity is determined using a sling psychrometer. […] Averages for 7 plants of each group are calculated and plotted.

The test system of test [2] is potted pepper (Capsicum sp.) plants. Description: Transpiration reduction in pepper plants grown in a growth chamber. Conditions: compared to control plants. The method, then: In the following example, a treatment group of potted pepper (Capsicum sp.) plants is sprayed once each evening with an aqueous “treatment solution” of 10 ppm sodium hydrosulfide (NaHS) in distilled water, buffered with phosphate, to a pH of 7.4. The control group of plants is sprayed once each evening with an equivalent amount of “control solution” consisting of distilled water buffered with phosphate to a pH of 7.4. Potted pepper plants are grown in a temperature controlled growth-chamber under metal halide lamps. Average temperature in the growth chamber is about 20° C., and relative humidity is about 60%. Pots contain a greenhouse mix peat soil enriched with slow release fertilizer. Environmental conditions (light, temperature, and relative humidity) inside the growth chamber are monitored every 30 minutes during the experiment using standard environmental sensors such as a pyranometer, thermocouple psychrometer, relative humidity sensor and a datalogger. […]
The treatment solution of aqueous sodium hydrosulfide (NaHS) is sprayed once each night onto the top surface and bottom surface of leaves as described in Example 1 using a simple hand sprayer. The control group receives the same quantity of water alone which is sprayed each night onto the leaves in the same fashion as the treated group. […]

The subject of the next test is corn (Zea Maize). Description: Water used to irrigate corn grown under field conditions. To be noted: end of growing season; compared to non-treated control corn. From the text:
In the following example, a treatment group of corn (Zea Maize) is sprayed once each evening with an aqueous “treatment solution” of 10 ppm sodium hydrosulfide (NaHS) in distilled water, buffered with phosphate, to a pH of 7.4. The control group of plants is sprayed once each evening with an equivalent amount of “control solution” consisting of distilled water buffered with phosphate to a pH of 7.4. An experimental plot may be setup with 8 repetitions to obtain statistically independent results. The treatment (aqueous NaHS) and control (water alone) plots may be set up following a randomized scheme. […]
Water Use Measurements. […] This allows the measurement of water used in every single plot such that evaluation of water use differences between the water-alone control crops and NaHS treated crops can be monitored. The system is installed in such a way that every plant may receive a given amount of water determined by using constant rate water applicators. […] Soil water content (SWC) is measured continuously, using a Time Domain Reflectometer sensor installed in each of the twenty-four rows. […] The sensors are monitored by a datalogger (model 23X, Campbell Scientific Inc., Logan, Utah). The probes may be 30 cm long, and can be buried vertically, such that average volumetric water content of the top 30 cm of the soil is measured. […] The soil water content may be measured every 60 seconds. […]

Consider `S` [NaHS, sodium hydrosulfide], for which the stomata conductance entry in test [1] is reported as “decrease in stomata conductance”. Besides, the transpiration result in test [2] (optimally watered plants sprayed each night with 10 ppm NaHS) is on record as “reduction in transpiration”. Further, in test [2] (water stress conditions, sprayed each night with 10 ppm NaHS), the cumulative water use entry is “cumulative water use in control plants is consistently higher”. Moreover, the “biomass production (total dry matter)” value with corn (Zea Maize) is given as “higher biomass production”.
